Data reported in patent US20130079373A1, “Substituted Methanesulfonamide Derivatives as Vanilloid Receptor Ligands” (priority 2011, published 2013).

Target: T1, vanilloid receptor 1 (VR1/TRPV1 receptor) (Homo sapiens, UniProt Q8NER1)
T1 construct: expressed in transfected cells; host or cells: CHO K1
Assay: Functional testing on the vanilloid receptor 1 (FLIPR Ca2+ influx assay, capsaicin stimulation)
Type: cell-based
Settings: Cap = capsaicin; human being; Ki from IC50 by the Cheng-Prusoff equation; read-out: (f) Ki (human being) [nM] Cap
Procedure: Furthermore, preference may be given to compounds according to the invention that cause a 50 percent displacement of capsaicin, which is present at a concentration of 100 nM, in a FLIPR assay with CHO K1 cells which were transfected with the human VR1 gene at a concentration of less than 2,000 nM, preferably less than 1,000 nM, particularly preferably less than 300 nM, most particularly preferably less than 100 nM, even more preferably less than 75 nM, additionally preferably less than 50 nM, most preferably less than 10 nM.
In the process, the Ca^2+ influx is quantified in the FLIPR assay with the aid of a Ca^2+-sensitive dye (type Fluo-4, Molecular Probes Europe BV, Leiden, the Netherlands) in a fluorescent imaging plate reader (FLIPR, Molecular Devices, Sunnyvale, USA), as described hereinafter.
I. Functional Testing Carried Out on the Vanilloid Receptor 1 (VR1/TRPV1 Receptor) […]
The number of cells in the suspension is set to 3×10^5 per mL and 150 μL of this suspension are in each case introduced into a recess in the cell culture plates coated as described hereinbefore. In the incubator the plates are left for two to three days at 37° C., 5% by volume of CO2 and 95% relative humidity. Subsequently, the cells are loaded with 2 μM of Fluo-4 and 0.01% by volume of Pluronic F127 (Molecular Probes Europe BV, Leiden, the Netherlands) in HBSS buffer (Hank's buffered saline solution, Gibco Invitrogen GmbH, Karlsruhe, Germany) for 30 min at 37° C., washed 3 times with HBSS buffer and after further incubation for 15 minutes at room temperature used for Ca^2+ measurement in a FLIPR assay. The Ca^2+ dependent fluorescence is in this case measured before and after the addition of substances (λex=488 nm, λem=540 nm). Quantification is carried out by measuring the highest fluorescence intensity (FC, fluorescence counts) over time.
The FLIPR protocol consists of 2 substance additions. First the compounds to be tested (10 μM) are pipetted onto the cells and the Ca^2+ influx is compared with the control (capsaicin 10 μM). This provides the result in % activation based on the Ca^2+ signal after the addition of 10 μM of capsaicin (CP). After 5 minutes' incubation, 100 nM of capsaicin are applied and the Ca^2+ influx is also determined.
Desensitising agonists and antagonists lead to suppression of the Ca^2+ influx. The % inhibition is calculated compared to the maximum achievable inhibition with 10 μM of capsazepine.
Triple analyses (n=3) are carried out and repeated in at least 3 independent experiments (N=4).
Starting from the percentage displacement caused by different concentrations of the compounds to be tested of general formula I, IC50 inhibitory concentrations which cause a 50-percent displacement of capsaicin were calculated. Ki values for the test substances were obtained by conversion by means of the Cheng-Prusoff equation (Cheng, Prusoff; Biochem. Pharmacol. 22, 3099-3108, 1973).
The affinity of the compounds according to the invention for the vanilloid receptor 1 (VR1/TRPV1 receptor) was determined as described hereinbefore (pharmacological method I).

T1 sequence (Q8NER1 whole entry): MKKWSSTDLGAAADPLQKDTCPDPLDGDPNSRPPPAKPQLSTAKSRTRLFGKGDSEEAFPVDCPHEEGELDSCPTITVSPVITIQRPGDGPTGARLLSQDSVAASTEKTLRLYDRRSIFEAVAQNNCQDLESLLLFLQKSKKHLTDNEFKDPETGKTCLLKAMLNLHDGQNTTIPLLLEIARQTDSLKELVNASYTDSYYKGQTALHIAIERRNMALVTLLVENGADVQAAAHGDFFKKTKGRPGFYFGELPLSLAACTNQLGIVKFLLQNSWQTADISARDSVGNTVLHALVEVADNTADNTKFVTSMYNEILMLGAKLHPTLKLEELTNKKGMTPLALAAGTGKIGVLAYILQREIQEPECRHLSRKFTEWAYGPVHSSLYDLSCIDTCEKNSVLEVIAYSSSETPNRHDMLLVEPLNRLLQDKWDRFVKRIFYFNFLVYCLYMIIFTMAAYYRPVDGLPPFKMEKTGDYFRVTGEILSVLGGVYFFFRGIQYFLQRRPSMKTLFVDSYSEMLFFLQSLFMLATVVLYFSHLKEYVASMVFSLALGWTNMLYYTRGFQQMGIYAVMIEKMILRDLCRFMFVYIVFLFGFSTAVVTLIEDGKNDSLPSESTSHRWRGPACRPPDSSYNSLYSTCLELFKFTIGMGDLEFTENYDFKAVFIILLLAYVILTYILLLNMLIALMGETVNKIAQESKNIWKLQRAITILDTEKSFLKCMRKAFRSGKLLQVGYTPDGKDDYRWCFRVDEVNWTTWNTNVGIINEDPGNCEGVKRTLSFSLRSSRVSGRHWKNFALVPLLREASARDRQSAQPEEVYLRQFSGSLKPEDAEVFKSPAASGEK

Ki: 41 nM
Compound: CC(C(=O)NCc1ccc(C(F)(F)F)nc1-c1cccs1)c1ccc(CNS(C)(=O)=O)c(F)c1 (stereo not shown) [Example 47, 2-(3-fluoro-4-(methylsulfonamidomethyl)phenyl)-N-((2-(thiophen-2-yl)-6-(trifluoromethyl)pyridin-3-yl)methyl)propanamide]
